Measurements taken from patent US8048898B2, “Inhibitor of binding of S1P1” (Taisho Pharmaceutical Co., Ltd, priority 2007, dated 2011).

Biological target: T1, human Edg-1(S1P1) (Homo sapiens, UniProt P21453)
T1 construct: expressed in transfected cells; host or cells: HEK-293
Test: S1P1 Binding Test ([33P]-S1P, membrane fraction of HEK-293 cell line carrying the human Edg-1(S1P1) gene)
Details: [33P]-S1P 0.1 nM; for inhibition at 10 µM: compound at 10 μM, 30° C., 1 hour, read-out: inhibition rate of Edg-1(S1P1) binding; for IC50: membrane binding test at various concentrations, read-out: IC50 value, Edg-1(S1P1) binding inhibition
Description: The membrane fraction of a HEK-293 cell line carrying the human Edg-1(S1P1) gene was used to study the compounds of the present invention for their inhibitory effect on Edg-1(S1P1) binding, as described in Science. […] To obtain the membrane fraction, treatment with solubilizing buffer (1 mM Tris/HCl, pH 7.2) for 10 minutes on ice was performed, followed by centrifugation at 1000×g for 5 minutes to remove an insoluble fraction and then at 40000×g for 30 minutes at 4° C. The resulting membrane fraction was dissolved in binding buffer (20 mM Tris-HCl, pH 7.4, 100 mM NaCl, 15 mM NaF, 2 mM deoxypyridoxine, 4 mg/mL fatty acid-free BSA), followed by addition of binding buffer containing [^33P]-S1P (ARC, final concentration: 0.1 nM) and DMSO solution of a test compound (final concentration of the compound: 10^−5 M, final concentration of DMSO: 0.1%). After stirring, the reaction solution was incubated at 30° C. for 1 hour. The membrane fraction was collected onto a unifilter-96 GF/C filter (Perkin Elmer) using a harvester and washed four times with binding buffer, followed by drying the filter. After addition of 25 μL Microscint 0 (Perkin Elmer), radioactivity was measured with a Top Count NXT (Packard) to calculate amount (A), i.e., the amount of [^33P]-S1P binding to the membrane fraction in the presence of the compound.
The same procedure was performed in the absence of any test compound to calculate amount (B), i.e., the amount of [^33P]-S1P binding. Moreover, the same procedure was also performed with HEK-293 cells carrying no Edg-1(S1P1) gene in the absence of any test compound to calculate amount (C), i.e., the amount of background [^33P]-S1P binding.
The inhibition rate of Edg-1(S1P1) binding was calculated for each compound by the following equation. Inhibition rate (%)=[1−(A−C)/(B−C)]×100
Moreover, the activity of each test compound was calculated as a value (IC50 value) showing 50% of the radioactivity obtained in the absence of any test compound. Namely, the above membrane system binding test was performed in the presence of a test compound at various concentrations to calculate an IC50 value according to the dose-dependent inhibition curve analyzed with data analysis software, Origin (Lightstone Corp., Japan).

T1 sequence (P21453 whole entry): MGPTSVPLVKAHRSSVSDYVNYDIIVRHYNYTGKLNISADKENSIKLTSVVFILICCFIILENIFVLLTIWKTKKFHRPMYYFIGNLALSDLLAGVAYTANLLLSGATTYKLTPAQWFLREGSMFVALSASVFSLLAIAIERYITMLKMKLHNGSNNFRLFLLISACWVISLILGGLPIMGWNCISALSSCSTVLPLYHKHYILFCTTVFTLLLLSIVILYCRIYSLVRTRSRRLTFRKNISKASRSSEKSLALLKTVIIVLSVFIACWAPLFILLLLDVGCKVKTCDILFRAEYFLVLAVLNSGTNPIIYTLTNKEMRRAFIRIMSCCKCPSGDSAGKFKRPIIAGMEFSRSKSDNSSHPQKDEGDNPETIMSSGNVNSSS

| SMILES | inhibition at 10 µM | IC50 |
| --- | --- | --- |
| CCc1c(Oc2ccc(C)cc2)nc(C)nc1C(C)NS(=O)(=O)c1ccc(Cl)c(Cl)c1 (centres unmarked) [Compound 1] | ≥ 3% |  |
| CCCc1c(C(C)NS(=O)(=O)c2ccc3c(Cl)cccc3c2)ccnc1Oc1cccc(N2CCN(C)CC2)c1 (centres unmarked) [Compound 11] | ≥ 3% | ≤ 200 nM |
| CCc1c(C(C)NS(=O)(=O)c2ccc(Br)s2)ccnc1Oc1cccc(N2CCOCC2)c1 (centres unmarked) [Compound 47] | ≥ 3% |  |
| CCc1c(C(C)NS(=O)(=O)c2ccc(Cl)c(Cl)c2)ccnc1Oc1ccc2ccncc2c1 (centres unmarked) [Compound 20] | ≥ 3% |  |
| CCc1c(C(C)NS(=O)(=O)c2ccc(Cl)c(Cl)c2)ccnc1Oc1ccc(C)cc1 (centres unmarked) [Compound 16] | ≥ 3% |  |
| CCc1c(C(C)NS(=O)(=O)c2ccc3c(Cl)cccc3c2)ccnc1Sc1cccc(N2CCN(C)CC2)c1 (single isomer, unassigned) [Compound 61] | ≥ 3% | 33 nM |
| CCc1c(C(C)NS(=O)(=O)c2ccc(Cl)c(Cl)c2)ccnc1OC1CCC1 (centres unmarked) [Compound 30] | ≥ 3% |  |
| CCc1c(C(C)NS(=O)(=O)c2ccc3c(c2)OCO3)ccnc1Oc1cccc(N2CCOCC2)c1 (centres unmarked) [Compound 52] | ≥ 3% |  |
| Cc1c(C(C)NS(=O)(=O)c2ccc3c(Cl)cccc3c2)ccnc1Oc1cccc(N2CCN(C)CC2)c1 (centres unmarked) [Compound 7] | ≥ 3% | ≤ 200 nM |
| CCc1c(C(C)NS(=O)(=O)c2ccc(Cl)c(Cl)c2)ccnc1OCC(F)(F)F (centres unmarked) [Compound 24] | ≥ 3% |  |
| Cc1c(C(C)NS(=O)(=O)c2ccc(Cl)c(Cl)c2)ccnc1Oc1cccc(N2CCN(C)CC2)c1 (centres unmarked) [Compound 6] | ≥ 3% |  |
| CCCc1c(C(C)NS(=O)(=O)c2ccc(Cl)c(Cl)c2)ccnc1Oc1cccc(N2CCN(C)CC2)c1 (centres unmarked) [Compound 10] | ≥ 3% |  |
| CC(NS(=O)(=O)c1ccc2c(Cl)cccc2c1)c1ccnc(Oc2cccc(N3CCN(C)CC3)c2)c1 (centres unmarked) [Compound 9] | ≥ 3% |  |
| CCc1c(C(C)NS(=O)(=O)c2ccc(Cl)c(Cl)c2)ccnc1Oc1ccc(Cl)cc1 (centres unmarked) [Compound 18] | ≥ 3% |  |
| CCc1c(C(CC)NS(=O)(=O)c2ccc3c(Cl)cccc3c2)ccnc1Oc1cccc(N2CCN(C)CC2)c1 (centres unmarked) [Compound 13] | ≥ 3% | 47 nM |
| CCc1c(C(C)NS(=O)(=O)c2ccc3c(c2)CCO3)ccnc1Oc1cccc(N2CCOCC2)c1 (centres unmarked) [Compound 54] | ≥ 3% |  |
| CCc1c(CNS(=O)(=O)c2ccc(Cl)c(Cl)c2)ccnc1Oc1cccc(N2CCN(C)CC2)c1 [Compound 14] | ≥ 3% |  |
| CCc1c(C(C)NS(=O)(=O)c2ccc(Cl)c(Cl)c2)ccnc1OC (centres unmarked) [Compound 23] | ≥ 3% |  |
| CCc1c(C(C)NS(=O)(=O)c2ccc3c(c2)N=S=N3)ccnc1Oc1cccc(N2CCOCC2)c1 (centres unmarked) [Compound 55] | ≥ 3% | 126 nM |
| CCc1c(C(C)NS(=O)(=O)c2cccc(Br)c2)ccnc1Oc1cccc(N2CCOCC2)c1 (centres unmarked) [Compound 42] | ≥ 3% |  |
| CCc1c(C(C)NS(=O)(=O)c2ccc(OC)cc2)ccnc1Oc1cccc(N2CCOCC2)c1 (centres unmarked) [Compound 36] | ≥ 3% |  |
